# “And” between values parts separate entries of the source, which are not always exact repeats. Identical values can stand only once.
# What was measured:
# [1] = Pharmacokinetics in whole blood, Sprague-Dawley rats; settings: for % Parent AUCAll: Sprague-Dawley rat, metabolite AUCall/Parent AUCall x 100; for Whole Blood Conc. of compound 2: Sprague-Dawley rats; for concentration at 4 h / concentration at 8 h / concentration at 2 h / concentration at 0.5 h: Sprague-Dawley, rat, whole blood, po, Whole Blood Conc. of compound 2, Sprague-Dawley rats
# [2] = Pharmacokinetics in whole blood, CD-1 mice; settings: for % Parent AUCAll: CD1 mouse, metabolite AUCall/Parent AUCall x 100; for Whole Blood Conc. of compound 2: CD-1 mice; for concentration at 0.083 h / concentration at 2 h / concentration at 4 h / concentration at 8 h / concentration at 0.333 h / concentration at 0.5 h / concentration at 1 h: male, CD-1, mouse, whole blood, po, Whole Blood Conc. of compound 2, CD-1 mice
# [3] = Pharmacokinetics in whole blood, cynomolgus monkeys
# Description: The whole blood samples (0.5 mL) were collected into syringes that were prefilled with 2.5 mL of ice-cold 0.1% formic acid in acetonitrile. The volume ratio of the whole blood to 0.1% formic acid in acetonitrile was 1/5 (v/v). Samples were frozen (-70°C) until analyzed by LC-MS/MS.
# Standard curves and quality control (QC) samples were prepared fresh on the day of analysis by serial dilution of the standard mixture in quenched whole blood (1 part of blood to 5 parts of 0.1% formic acid in acetonitrile) and centrifuged. […] The frozen study samples were thawed in an ice/water bath and centrifuged. Supernatant (50 μL) from standards, QC samples, and study samples was transferred to a 96-well plate and dried completely under nitrogen. The dried residues were reconstituted with 100 μL of 0.1% formic acid in water containing internal standard (5 ng/mL of ^15N/^13C3-RE-024-02) and analyzed by LC-MS/MS.
# LC-MS/MS analysis for blood pharmacokinetic samples: Samples were analyzed using an Agilent 1100 binary pump (Agilent Technologies, Santa Clara, CA, USA), connected to an AB Sciex API 6500 mass spectrometer (SCIEX, Framingham, MA, USA). An electrospray ionization source was used, scanning in the positive mode. […] The chromatography column was a Varian Metasil AQ 120–5 C18 column, 5 μm, 50 x 2.00 mm (Part No. A0530050X020) at ambient temperature, with a 0.5 mL/min flow rate and a 20 μL injection volume. Mobile phase (A) consisted of 0.1% formic acid in water; while mobile phase (B) consisted of 0.1% formic acid in acetonitrile:water (9:1, v/v).
# Quantitation of in vivo samples: Peak areas were integrated using Analyst software (AB Sciex, Concord, Ontario, Canada). […] Calibration standards (at a minimum 7 per curve) were fit by linear regression with (1/x^2) weighting. QC samples were used (triplicate) at 3 concentrations for all tandem mass spectrometry (MS/MS) runs.
# Pharmacokinetic calculations: PK analysis was performed using Phoenix WinNonlin®, Build 6.3.0.395 (Certara, Princeton, NJ, USA) using a non-compartmental model (PO dose = model 200 for extravascular dosing). […] Post-dose concentrations below the limit of quantitation (BLQ) were omitted from calculation.
# [4] = 100 mg/kg, single 100 mg/kg RE-024-02 PO, LLOQ 3 ng/mL
# [5] = 100 mg/kg, single 100 mg/kg RE-024-02 PO, LLOQ 10.2 nM
compound,measurement,setting,value
COC(=O)CCNC(=O)[C@@H]1OP(=O)(O)OCC1(C)C [Compound 2],% Parent AUCAll,[1]; 300 mg/kg PO,"1,250%"
same,% Parent AUCAll,[1]; 700 mg/kg PO,220%
same,Whole Blood Conc. of compound 2,"[1]; single 300 mg/kg RE-024-02 PO, time 2, LLOQ 3 ng/mL, 300 mg/kg",38.46 ng/mL and 47.10 ng/mL
same,Whole Blood Conc. of compound 2,"[1]; single 300 mg/kg RE-024-02 PO, time 2, LLOQ 10.2 nM, 300 mg/kg",130.27 nM and 159.54 nM
same,Whole Blood Conc. of compound 2,"[1]; single 300 mg/kg RE-024-02 PO, time 8, LLOQ 3 ng/mL, 300 mg/kg",5.25 ng/mL and 7.14 ng/mL
same,Whole Blood Conc. of compound 2,"[1]; single 300 mg/kg RE-024-02 PO, time 8, LLOQ 10.2 nM, 300 mg/kg",17.78 nM and 24.18 nM
same,Whole Blood Conc. of compound 2,"[1]; single 700 mg/kg RE-024-02 PO, time 0.5, LLOQ 3 ng/mL, 700 mg/kg",247.20 ng/mL and 285.00 ng/mL
same,Whole Blood Conc. of compound 2,"[1]; single 700 mg/kg RE-024-02 PO, time 0.5, LLOQ 10.2 nM, 700 mg/kg",837.31 nM and 965.35 nM
same,Whole Blood Conc. of compound 2,"[1]; single 700 mg/kg RE-024-02 PO, time 2, LLOQ 3 ng/mL, 700 mg/kg",61.80 ng/mL and 118.20 ng/mL
same,Whole Blood Conc. of compound 2,"[1]; single 700 mg/kg RE-024-02 PO, time 2, LLOQ 10.2 nM, 700 mg/kg",209.33 nM and 400.37 nM
same,concentration at 4 h,"[1]; 100 mg/kg, single 100 mg/kg RE-024-02 PO, time 4, LLOQ 3 ng/mL",0.00557 µg/mL
same,concentration at 4 h,"[1]; 100 mg/kg, single 100 mg/kg RE-024-02 PO, time 4, LLOQ 10.2 nM",0.0189 µM
same,concentration at 8 h,"[1]; 100 mg/kg, single 100 mg/kg RE-024-02 PO, time 8, LLOQ 3 ng/mL",0.00642 µg/mL
same,concentration at 8 h,"[1]; 100 mg/kg, single 100 mg/kg RE-024-02 PO, time 8, LLOQ 10.2 nM",0.0218 µM
same,concentration at 2 h,"[1]; 300 mg/kg, single 300 mg/kg RE-024-02 PO, time 2, LLOQ 10.2 nM",0.258 µM
same,concentration at 8 h,"[1]; 300 mg/kg, single 300 mg/kg RE-024-02 PO, time 8, LLOQ 3 ng/mL",0.00936 µg/mL
same,concentration at 8 h,"[1]; 300 mg/kg, single 300 mg/kg RE-024-02 PO, time 8, LLOQ 10.2 nM",0.0317 µM
same,concentration at 2 h,"[1]; male, 300 mg/kg, single 300 mg/kg RE-024-02 PO, time 2, LLOQ 3 ng/mL",0.0762 µg/mL
same,concentration at 0.5 h,"[1]; male, 700 mg/kg, single 700 mg/kg RE-024-02 PO, time 0.5, LLOQ 3 ng/mL",0.452 µg/mL
same,concentration at 0.5 h,"[1]; male, 700 mg/kg, single 700 mg/kg RE-024-02 PO, time 0.5, LLOQ 10.2 nM",1.53 µM
same,concentration at 2 h,"[1]; male, 700 mg/kg, single 700 mg/kg RE-024-02 PO, time 2, LLOQ 3 ng/mL",0.105 µg/mL
same,concentration at 2 h,"[1]; male, 700 mg/kg, single 700 mg/kg RE-024-02 PO, time 2, LLOQ 10.2 nM",0.356 µM
same,% Parent AUCAll,[2]; 100 mg/kg PO,"8,550%"
same,% Parent AUCAll,[2]; 300 mg/kg PO,"29,800%"
same,% Parent AUCAll,[2]; 700 mg/kg PO,"7,220%"
same,Whole Blood Conc. of compound 2,"[2]; single 300 mg/kg RE-024-02 PO, 0.333 hr, LLOQ 3 ng/mL, 300 mg/kg",495 ng/mL and 550.2 ng/mL and 391.2 ng/mL
same,Whole Blood Conc. of compound 2,"[2]; single 300 mg/kg RE-024-02 PO, 0.333 hr, LLOQ 10.2 nM, 300 mg/kg",1676.7 nM and 1863.6 nM and 1325.1 nM
same,Whole Blood Conc. of compound 2,"[2]; single 300 mg/kg RE-024-02 PO, 0.5 hr, LLOQ 3 ng/mL, 300 mg/kg",472.2 ng/mL and 328.2 ng/mL and 282 ng/mL
same,Whole Blood Conc. of compound 2,"[2]; single 300 mg/kg RE-024-02 PO, 0.5 hr, LLOQ 10.2 nM, 300 mg/kg",1599.4 nM and 1111.7 nM and 955.2 nM
same,Whole Blood Conc. of compound 2,"[2]; single 300 mg/kg RE-024-02 PO, 4 hr, LLOQ 3 ng/mL, 300 mg/kg",15.4 ng/mL and 22.8 ng/mL and 26.2 ng/mL
same,Whole Blood Conc. of compound 2,"[2]; single 300 mg/kg RE-024-02 PO, 4 hr, LLOQ 10.2 nM, 300 mg/kg",52.2 nM and 77.2 nM and 88.6 nM
same,Whole Blood Conc. of compound 2,"[2]; single 700 mg/kg RE-024-02 PO, 0.333 hr, LLOQ 3 ng/mL, 700 mg/kg",1656 ng/mL
same,Whole Blood Conc. of compound 2,"[2]; single 700 mg/kg RE-024-02 PO, 0.333 hr, LLOQ 10.2 nM, 700 mg/kg",5609.2 nM
same,Whole Blood Conc. of compound 2,"[2]; single 700 mg/kg RE-024-02 PO, 1 hr, LLOQ 3 ng/mL, 700 mg/kg",318 ng/mL and 373.2 ng/mL and 381 ng/mL
same,Whole Blood Conc. of compound 2,"[2]; single 700 mg/kg RE-024-02 PO, 1 hr, LLOQ 10.2 nM, 700 mg/kg",1077.1 nM and 1264.1 nM and 1290.5 nM
same,Whole Blood Conc. of compound 2,"[2]; single 700 mg/kg RE-024-02 PO, 4 hr, LLOQ 3 ng/mL, 700 mg/kg",84 ng/mL and 92.4 ng/mL and 88.2 ng/mL
same,Whole Blood Conc. of compound 2,"[2]; single 700 mg/kg RE-024-02 PO, 4 hr, LLOQ 10.2 nM, 700 mg/kg",284.5 nM and 313 nM and 298.8 nM
same,concentration at 0.083 h,[2]; [4],0.0174 µg/mL
same,concentration at 0.083 h,[2]; [5],0.0589 µM
same,concentration at 2 h,[2]; [4],0.0051 µg/mL
same,concentration at 2 h,[2]; [5],0.0173 µM
same,concentration at 4 h,"[2]; 100 mg/kg, single 100 mg/kg RE-024-02 PO, 4 hr, LLOQ 3 ng/mL",0.0035 µg/mL
same,concentration at 4 h,"[2]; 100 mg/kg, single 100 mg/kg RE-024-02 PO, 4 hr, LLOQ 10.2 nM",0.0117 µM
same,concentration at 8 h,[2]; [4],0.0035 µg/mL
same,concentration at 8 h,[2]; [5],0.0119 µM
same,concentration at 0.333 h,"[2]; 300 mg/kg, single 300 mg/kg RE-024-02 PO, 0.333 hr, LLOQ 3 ng/mL",0.443 µg/mL
same,concentration at 0.333 h,"[2]; 300 mg/kg, single 300 mg/kg RE-024-02 PO, 0.333 hr, LLOQ 10.2 nM",1.5 µM
same,concentration at 0.5 h,"[2]; 300 mg/kg, single 300 mg/kg RE-024-02 PO, 0.5 hr, LLOQ 3 ng/mL",0.254 µg/mL
same,concentration at 0.5 h,"[2]; 300 mg/kg, single 300 mg/kg RE-024-02 PO, 0.5 hr, LLOQ 10.2 nM",0.86 µM
same,concentration at 4 h,"[2]; 300 mg/kg, single 300 mg/kg RE-024-02 PO, 4 hr, LLOQ 3 ng/mL",0.0219 µg/mL
same,concentration at 4 h,"[2]; 300 mg/kg, single 300 mg/kg RE-024-02 PO, 4 hr, LLOQ 10.2 nM",0.0742 µM
same,concentration at 0.333 h,"[2]; 700 mg/kg, single 700 mg/kg RE-024-02 PO, 0.333 hr, LLOQ 3 ng/mL",1.91 µg/mL
same,concentration at 0.333 h,"[2]; 700 mg/kg, single 700 mg/kg RE-024-02 PO, 0.333 hr, LLOQ 10.2 nM",6.46 µM
same,concentration at 1 h,"[2]; 700 mg/kg, single 700 mg/kg RE-024-02 PO, 1 hr, LLOQ 3 ng/mL",0.541 µg/mL
same,concentration at 1 h,"[2]; 700 mg/kg, single 700 mg/kg RE-024-02 PO, 1 hr, LLOQ 10.2 nM",1.83 µM
same,concentration at 4 h,"[2]; 700 mg/kg, single 700 mg/kg RE-024-02 PO, 4 hr, LLOQ 3 ng/mL",0.104 µg/mL
same,concentration at 4 h,"[2]; 700 mg/kg, single 700 mg/kg RE-024-02 PO, 4 hr, LLOQ 10.2 nM",0.354 µM
same,% Parent AUCAll,"[3]; Cynomolgus monkey, 300 mg/kg PO, metabolite AUCall/Parent AUCall x 100",132%
same,concentration at 0.5 h,"[3]; cynomolgus monkey, whole blood, po, 300 mg/kg, Concentration of compound 2 in whole blood, cynomolgus monkeys, single oral 300 mg/kg fosmetpantotenate, 0.5 hr, LLOQ 2.03 nM",1.86 µM
same,concentration at 1 h,"[3]; cynomolgus monkey, whole blood, po, 300 mg/kg, Concentration of compound 2 in whole blood, cynomolgus monkeys, single oral 300 mg/kg fosmetpantotenate, 1 hr, LLOQ 2.03 nM",1.97 µM
same,concentration at 4 h,"[3]; cynomolgus monkey, whole blood, po, 300 mg/kg, Concentration of compound 2 in whole blood, cynomolgus monkeys, single oral 300 mg/kg fosmetpantotenate, 4 hr, LLOQ 2.03 nM",2.35 µM
same,concentration at 8 h,"[3]; cynomolgus monkey, whole blood, po, 300 mg/kg, Concentration of compound 2 in whole blood, cynomolgus monkeys, single oral 300 mg/kg fosmetpantotenate, 8 hr, LLOQ 2.03 nM",1.15 µM
same,Concentration of compound 2 in whole blood,"[3]; cynomolgus monkeys, single oral 300 mg/kg fosmetpantotenate, 0.083 hr, LLOQ 2.03 nM",BQL
same,Concentration of compound 2 in whole blood,"[3]; cynomolgus monkeys, single oral 300 mg/kg fosmetpantotenate, 0.5 hr, LLOQ 2.03 nM, 300 mg/kg",1.21045 µM
same,Concentration of compound 2 in whole blood,"[3]; cynomolgus monkeys, single oral 300 mg/kg fosmetpantotenate, 1 hr, LLOQ 2.03 nM, 300 mg/kg",2.02357 µM
same,Concentration of compound 2 in whole blood,"[3]; cynomolgus monkeys, single oral 300 mg/kg fosmetpantotenate, 4 hr, LLOQ 2.03 nM, 300 mg/kg",4.44122 µM
same,Concentration of compound 2 in whole blood,"[3]; cynomolgus monkeys, single oral 300 mg/kg fosmetpantotenate, 8 hr, LLOQ 2.03 nM, 300 mg/kg",0.99685 µM

# Source: publication PMC5844530, “Fosmetpantotenate (RE-024), a phosphopantothenate replacement therapy for pantothenate kinase-associated neurodegeneration: Mechanism of action and efficacy in nonclinical models” (PLoS ONE, 2018)
